Target: tryptophan 2-monooxygenase (TMO) (Pseudomonas savastanoi, UniProt P06617)
Experiment: X-ray crystal structure, […] Å
Conditions: FAD-binding domain; IAM also bound

Chain of tryptophan 2-monooxygenase (TMO) (P06617 whole entry): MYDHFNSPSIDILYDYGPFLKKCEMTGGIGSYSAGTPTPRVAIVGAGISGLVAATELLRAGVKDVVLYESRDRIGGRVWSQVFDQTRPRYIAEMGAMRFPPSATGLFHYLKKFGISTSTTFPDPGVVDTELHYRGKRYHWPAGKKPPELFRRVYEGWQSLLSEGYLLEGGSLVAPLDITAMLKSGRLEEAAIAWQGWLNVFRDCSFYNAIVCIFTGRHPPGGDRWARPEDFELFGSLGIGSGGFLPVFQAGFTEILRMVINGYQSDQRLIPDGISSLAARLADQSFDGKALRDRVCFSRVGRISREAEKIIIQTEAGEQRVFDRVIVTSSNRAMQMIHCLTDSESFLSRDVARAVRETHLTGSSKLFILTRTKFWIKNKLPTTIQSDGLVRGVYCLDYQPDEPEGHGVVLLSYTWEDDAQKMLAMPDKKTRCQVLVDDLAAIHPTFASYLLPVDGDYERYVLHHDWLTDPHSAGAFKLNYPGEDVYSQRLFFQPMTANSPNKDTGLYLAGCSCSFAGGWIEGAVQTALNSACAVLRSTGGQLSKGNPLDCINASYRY

`Cc1cc2nc3c(=O)[nH]c(=O)nc-3n(C[C@H](O)[C@H](O)[C@H](O)COP(=O)(O)OP(=O)(O)OC[C@H]3O[C@@H](n4cnc5c(N)ncnc54)[C@H](O)[C@@H]3O)c2cc1C` [FAD] was tested, and the “X-ray crystal structure, 1.95 Å” value was “The FAD cofactor and the bound indole-3-acetamide occupy a large internal cavity”.

Source: paper PMC3635830 (Biochemistry, 2013)
